For experiment [1], the target named is T1, cortisone reductase of human adipose cell (11βHSD1) (Homo sapiens, UniProt P28845).
T1 construct: host or cells: normal human visceral preadipocytes (HPrAD-vis) differentiated into adipocytes
The experiment in a line: Inhibitory activity assay against cortisone reductase activity of cultured human adipocytes. The experiment is classed as cell-based. The conditions noted are these: differentiated normal human preadipocytes (HPrAD-vis), 100 nM [1,2-3H] cortisone, 37° C. How it is done: Normal human preadipocytes (HPrAD-vis, manufactured by Cambrex corporation) were inoculated onto a 48-well cell culture plate, and the differentiation induction was carried out according to Protocol attached to the kit. The medium for the cells on the 9-11 days of the differentiation was changed to D-MEM medium (0.2 ml; manufactured by GIBCO) containing 100 nM [1,2-^3H] cortisone (1 μCi/well, manufactured by Muromachi Yakuhin), 0.5% DMSO, a test compound (for test compound treated group, or DMSO only for the no-test compound treated group). The plate was incubated at 37° C. for 3 hours, and then the whole medium was collected. As a background group, the medium without cell was used. The medium was mixed with ethyl acetate (0.1 ml) in an Eppendorf tube. This mixture was voltexed, and then further centrifuged at 5,000 rpm for one minute at room temperature to separate the ethyl acetate layer (the upper layer). The ethyl acetate layer (10 μl) was spotted on an aluminium plate for thin layer chromatography (silica gel 60 angstrom, Merck & Co., Inc., hereinafter referred to as TLC plate). The developing solvent (chloroform/methanol (90:10, v/v)) was put into a sealed vessel, and the TLC plate was developed, and then dried at room temperature. An imaging plate (TR-2040, Fujifilm) was exposed onto the dried TLC plate for 16 hours or more. After the exposure was completed, the imaging plate was analyzed by Bioimage Analyzer (BAS2500, Fujifilm) and the [^3H] radioactivity on the part corresponding to the position of cortisol developed on the TLC plate. The inhibitory activity of a test compound against cortisone reductase was calculated according to the following equation. (inhibitory activity (%))=100×((group without test compound)−(group with test compound))/((group without test compound)−(background group))
The IC50 value was calculated by linear regression of logarithmic value of the concentration of test compound and the inhibitory activity value, using the data at 2 points showing around 50% of the inhibitory activity. […] The IC50 value of the following compounds of the present invention against cortisone reductase of human adipose cell was determined.

Experiment [2] concerns the target T2, cortisone reductase of mouse adipose cell (11βHSD1) (Mus musculus, UniProt P50172).
T2 construct: The medium of adipocytes which were differentiated and induced as mentioned above were replaced; endogenous in cells; host or cells: primary cells from visceral fat tissue of ICR male mice (Japan SLC), differentiated into adipocytes in culture
The experiment in a line: Inhibitory activity assay against cortisone reductase of mouse primary adipocytes. The conditions noted are these: differentiated ICR mouse visceral fat primary adipocytes, 100 nM [1,2-3H] cortisone, 37° C. It counts as cell-based. How it is done:
The adipose tissues adhered to the mesenterium and around the testicle of ten ICR male mice (9 to 11 weeks old, Japn SLC Inc.) (hereinafter, referred to as visceral fat tissue) were soaked in about 100 mL of a phospate buffer (0.20 g/L KCl, 0.20 g/L KH2PO4, 8.00 g/L NaCl, 2.16 g/L Na2HPO4.7H2O, 100 unit/ml penicillin (GIBCO), 100 μg/ml streptomycin (GIBCO), 250 ng/ml amphotericin (GIBCO)) and washed at room temperature.
The excised visceral fat tissues was cut finely in about 5×5 mm with scissors in Dulbecco's modified Eagle medium (about 50 ml, containing 4.5 g/L D-glucose and 584 mg/L L-glutamine, GIBCO) to which collagenase (Type II, Sigma), penicillin (GIBCO), streptomycin (GIBCO) and amphotericin (GIBCO) were added in an amount so that the final concentrations thereof are adjusted to 1 mg/ml, 100 unit/ml, 100 μg/ml and 250 ng/ml, respectively. Then, the mixture was shaken at 37° C. for 30 minutes (about 170 rpm), filtered through nylon mesh (80S [the pore size: 250 μm], SANSHIN INDUSTRIAL CO., LTD.), and the filtrate (cell suspension) was collected. This filtrate was centrifuged at 1800 rpm at room temperature for 5 minutes, and then, the liquid layer was removed stilly by decantation to give a precipate. This precipiate was suspended in Dulbecco's modified Eagle medium (30 ml, containing 4.5 g/L D-glucose and 584 mg/L L-glutamine, GIBCO; hereinafter, occasionally referred to as FBS-containing medium), to which fetal bovine serum (hereinafter referred to as FBS, GIBCO), ascorbic acid (Wako Pure Chemical Industries, Ltd.), penicillin (GIBCO), streptomycin (GIBCO) and amphotericin (GIBCO) are added thereto in an amount so that the final concentrations thereof were adjusted to 10%, 200 μM, 100 units/ml, 100 μg/ml and 250 ng/ml, respectively, and then the suspension was filtered through a nylon mesh (420S [pore size: 25 μm], SANSHIN INDUSTRIAL CO., LTD.). The filtrate was collected, and centrifuged at 1800 rpm at room temperature for 5 minutes. The liquid layer was removed stilly by decantation, and the precipitate was suspended again in the FBS-containing medium (30 ml). This suspension was treated by the same procedure (centrifugation, removal of liquid layer, suspension in FBS-containing medium) two times more, and the suspension (90 ml) was prepared. This suspension was put into cell culture flasks (T150, for adhered cell culture, Iwaki Glass) in a each volume of 30 ml, and incubated at 37° C. in the presence of 5% CO2. At 5 to 6 hours after starting incubation, the medium was removed, and the wall of the flask was washed with the above-mentioned phosphate buffer (15 ml). The washing liquid was removed, and the washing procedure was repeated again, and the phosphate buffer was removed. To the flask was added FBS-containing medium (30 ml), and the mixture was incubated at 37° C. under the presence of 5% CO2. On Day 1 or Day 2 after the culture started, the medium was removed, and the wall of the flask was washed with the phosphate buffer (15 ml) once. To the flask was added a trypsin-ethylenediamine tetraacetate (hereinafter, referred to as trypsin-EDTA) solution (0.05% trypsin, 0.53 mM EDTA 4Na, GIBCO) in such a volume that the cells are duly soaked, and the mixture was allowed to stand at 37° C. for 5 minutes. To this mixture was added the FBS-containing medium in about 10-times volume of that of the trypsin-EDTA solution, and then the cell suspension was obtained.
The cells in the cell suspension were counted with a counting chamber, and the cell suspension was diluted with the FBS-containing medium so that the concentration of the cell was adjusted to 1.4×10^5 cells/ml. Thus obtained cell dilution was put into a 48-well plate (for adherent cell culture, Iwaki Glass) in an amount of 300 μl per well, and the plate was incubated at 37° C. in the presence of 5% CO2 for 1 to 2 days. […]

The term IC50 denotes the concentration needed to halve the response being measured.

T2 sequence (P50172 whole entry): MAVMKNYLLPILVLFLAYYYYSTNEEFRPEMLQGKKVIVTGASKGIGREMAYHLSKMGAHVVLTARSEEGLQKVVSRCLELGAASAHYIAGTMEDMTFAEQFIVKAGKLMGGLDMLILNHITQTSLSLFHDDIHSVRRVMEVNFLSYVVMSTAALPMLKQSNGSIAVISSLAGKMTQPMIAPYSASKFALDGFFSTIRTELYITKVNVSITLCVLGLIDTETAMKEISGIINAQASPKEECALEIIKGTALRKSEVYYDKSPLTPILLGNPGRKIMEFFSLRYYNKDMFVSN
T1 sequence (P28845 whole entry): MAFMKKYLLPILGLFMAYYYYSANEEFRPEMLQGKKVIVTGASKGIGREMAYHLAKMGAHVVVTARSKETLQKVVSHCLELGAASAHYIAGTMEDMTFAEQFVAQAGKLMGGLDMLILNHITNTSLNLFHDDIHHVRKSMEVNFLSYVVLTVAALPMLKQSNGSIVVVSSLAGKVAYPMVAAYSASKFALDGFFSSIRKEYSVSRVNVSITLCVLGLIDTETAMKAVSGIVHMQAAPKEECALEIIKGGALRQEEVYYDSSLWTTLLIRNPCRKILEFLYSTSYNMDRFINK

In the case of `COc1cccc(OC2CC3CCC(C2)N3C(=O)NC2C3CC4CC2CC(O)(C4)C3)c1Cl` (centres unmarked) [compound 192], in experiment [1], the IC50 is below 3 nM. `O=C(NC1C2CC3CC1CC(O)(C3)C2)N1C2CCC1CC(Oc1cc(OC(F)F)ccn1)C2` (centres unmarked) [Example 339] gave an IC50 in experiment [1] below 3 nM. The compound `O=C(NC1C2CC3CC1CC(O)(C3)C2)N1C2CCC1CC(Oc1ncc(C(F)F)cc1Cl)C2` (centres unmarked) [Example 342] displayed an IC50 in experiment [2] below 3 nM.

As to `O=C(NC1C2CC3CC1CC(O)(C3)C2)N1C2CCC1CC(OC1CCN(c3ccc(F)cn3)CC1)C2` (centres unmarked) [Example 427], it took 15 nM to reach half-maximal inhibition in experiment [1] (IC50). For the compound `CCc1cccnc1OC1CC2CCC(C1)N2C(=O)NC1C2CC3CC1CC(O)(C3)C2` (centres unmarked) [Example 324], the IC50 in experiment [2] is below 3 nM. `CN(c1ccccc1)C1CC2CCC(C1)N2C(=O)NC1C2CC3CC1CC(O)(C3)C2` (stereo not drawn) [Example 316, (3-Endo)-N-[(E)-5-hydroxyadamantan-2-yl]-3-[methyl(phenyl)amino]-8-azabicyclo-[3.2.1]octane-8-carboxamide] displayed an IC50 in experiment [2] of 18 nM. Compound `O=C(NC1C2CC3CC1CC(O)(C3)C2)N1C2CCC1CC(Oc1ncccc1C1CC1)C2` (centres unmarked) [Example 326] showed an IC50 in experiment [1] below 3 nM. Still for that read-out and setting: as for `O=C(N[C@H]1C2CC3CC1C[C@](O)(C3)C2)N1[C@@H]2CC[C@H]1C[C@H](Oc1ccccc1)C2` [compound 2], the figure is below 1 nM.

`CC(=O)c1cccnc1OC1CC2CCC(C1)N2C(=O)NC1C2CC3CC1CC(O)(C3)C2` (centres unmarked) [Example 353] showed an IC50 in experiment [2] of 7.9 nM. `Cc1cc(OC2CC3CCC(C2)N3C(=O)NC2C3CC4CC2CC(O)(C4)C3)ncc1F` (centres unmarked) [Example 404] displayed an IC50 in experiment [1] below 3 nM. `Cc1cccc(N2CCC(OC3CC4CCC(C3)N4C(=O)NC3C4CC5CC3CC(O)(C5)C4)CC2)c1` (centres unmarked) [Example 423] had an IC50 in experiment [2] below 3 nM. In experiment [2], `O=C(NC1C2CC3CC1CC(O)(C3)C2)N1C2CCC1CC(Oc1ncccc1F)C2` (centres unmarked) [Example 400] gave an IC50 below 3 nM.

In turn, `O=C1CCc2ccc(OC3CC4CCC(C3)N4C(=O)NC3C4CC5CC3CC(O)(C5)C4)cc21` (centres unmarked) [Example 390] yielded an IC50 in experiment [1] of 11 nM. `O=C(NC1C2CC3CC1CC(O)(C3)C2)N1C2CCC1CC(Oc1cc(C(F)(F)F)ccn1)C2` (centres unmarked) [Example 307]: the IC50 in experiment [2] was below 1 nM. For `O=C(NC1C2CC3CC1CC(O)(C3)C2)N1C2CCC1CC(Oc1cc(OCC(F)(F)F)ccn1)C2` (centres unmarked) [Example 373], half-maximal inhibition in experiment [1] (IC50) required 17 nM.

In the case of `Cc1ccnc(C2CC3CCC(C2)N3C(=O)NC2C3CC4CC2CC(O)(C4)C3)c1` (centres unmarked) [compound 241], the IC50 in experiment [1] was below 3 nM. For the compound `COCc1cccc(OC2CC3CCC(C2)N3C(=O)NC2C3CC4CC2CC(O)(C4)C3)c1F` (centres unmarked) [Example 364], in experiment [2], the IC50 stood at 7.7 nM. Same read-out and setting: as for `O=C(NC1C2CC3CC1CC(O)(C3)C2)N1C2CCC1CC(Oc1cccc(COCC(F)(F)F)c1)C2` (centres unmarked) [Example 367], the figure is below 3 nM. In experiment [1], `O=C(NC1C2CC3CC1CC(O)(C3)C2)N1C2CCC1CC(Oc1ccc(F)cn1)C2` (centres unmarked) [Example 409] yielded an IC50 below 3 nM.

In experiment [1], `O=C(NC1C2CC3CC1CC(O)(C3)C2)N1C2CCC1CC(Oc1ccc(F)cn1)C2` (centres unmarked) [Example 413] came in with an IC50 below 3 nM.

`Cc1cccnc1OC1CC2CCC(C1)N2C(=O)NC1C2CC3CC1CC(O)(C3)C2` (centres unmarked) [Example 407] displayed an IC50 in experiment [2] of 4.1 nM. `O=C(NC1C2CC3CC1CC(O)(C3)C2)N1C2CCC1CC(Oc1cccc(Cl)n1)C2` (centres unmarked) [Example 311]: the IC50 in experiment [2] was found to be 8.8 nM. Same read-out and setting: as for `CC(C)c1ccnc(OC2CC3CCC(C2)N3C(=O)NC2C3CC4CC2CC(O)(C4)C3)c1` (centres unmarked) [Example 309], the figure is 4.1 nM; as for `O=C(NC1C2CC3CC1CC(O)(C3)C2)N1C2CCC1CC(N1Cc3ccccc3C1)C2` (centres unmarked) [Example 431], 27 nM. With `O=C(NC1C2CC3CC1CC(O)(C3)C2)N1C2CCC1CC(Oc1ccc3c(c1)OC(F)(F)O3)C2` (centres unmarked) [Example 378], in experiment [1], the IC50 is 14 nM. In experiment [1], `O=C(NC1C2CC3CC1CC(O)(C3)C2)N1C2CCC1CC(Oc1ncccc1C(F)F)C2` (centres unmarked) [Example 336] came in with an IC50 of 8.4 nM.

For `O=C(NC1C2CC3CC1CC(O)(C3)C2)N1C2CCC1CC(Oc1cc(F)c(F)c(F)c1)C2` (centres unmarked) [Example 383], the IC50 in experiment [1] was below 3 nM. For `O=C(N[C@H]1C2CC3CC1C[C@](O)(C3)C2)N1[C@@H]2CC[C@H]1CC(COc1ccccc1)C2` (stereo partly drawn) [Example 314, (1R,5S)-N-[(E)-5-Hydroxyadamantan-2-yl]-3-(phenoxymethyl)-8-azabicyclo[3.2.1]octane-8-carboxyamide], it took 19 nM to reach half-maximal inhibition in experiment [1] (IC50). `Cc1cnc(C)c(OC2CC3CCC(C2)N3C(=O)NC2C3CC4CC2CC(O)(C4)C3)n1` (centres unmarked) [Example 306] showed an IC50 in experiment [1] of 6.3 nM.

Source of the values: US8933229B2, “8-azabicyclo[3.2.1]octane-8-carboxamide derivative” (Sumitomo Dainippon Pharma Co., Ltd., priority 2009, dated 2015).
